What was measured:
[1] = test system: normal, T1DM and T2DM mice; assay: Plasma insulin levels before and after treatment; assay type: in vivo, ICR mice
Experimental: The 4-week-old male ICR mice were purchased from the Animal Center of the College of Medicine, National Taiwan University (Taipei, Taiwan) with delicate humane care. This animal study was conducted by following the University ethical guidelines and the ‘Guide for the Care and Use of Laboratory Animals’ published by the US National Institutes of Health (NIH publication no. 85-23, revised 1996). The animal experiments were approved by the Institutional Animal Care and Use Committee (IACUC) of the National Taiwan University (IACUC No. 20110073). Animals were housed in a room at the constant temperature, 22±1° C., with 12 hours light and dark cycles.
After three days of acclimatization, the mice had free access to a standard rodent chow (normal mice), a standard rodent chow after single […] streptozotocin (STZ) intraperitoneal injection (T1DM mice), and a fat-rich chow diet and fructose-sweetened water (T2DM mice) for 4 weeks. The induction of Type 1 DM was assessed and confirmed when the mice had plasma glucose levels ≧350 mgdL^−1, accompanied with polyuria, hyperphagia and decreased body weight. The induction Type 2 DM in the mice was assessed by measuring fasting plasma glucose levels and confirmed when plasma glucose level was ≧150 mgdL^−1 after the 4-week induction. The animals were assigned randomly into three groups, with seven animals in each group. In group I, the mice were treated with vehicle, 2% DMSO in normal saline, as the negative control. In group II, the mice were intraperitoneally treated with borapetoside A (0.1-10 mgkg^−1). In group Ill, the positive control, the mice received intraperitoneally metformin (300 mgkg^−1; Sigma Chemical Co., St. Louis, Mo., U.S.A.) or insulin (0.5 IUkg^−1; Insulin Actrapid® HM; Novo Nordisk, Denmark). In the acute study, mice under anesthesia received a single intraperitoneal administration of borapetoside A, negative control, or positive control. In the subacute study, mice received intraperitoneal administrations of borapetoside A, vehicle, or insulin twice a day for seven days.
Blood samples were collected from the orbital vascular plexus of the mice under anesthesia. Blood samples were then centrifuged at 13000 rpm for 5 min, and the plasma samples were collected and kept on ice prior to the assay. The plasma glucose concentration was measured by Glucose Kit Reagent (Biosystems S. A., Barcelona, Spain) following the manufacturer's instructions, and the insulin levels were estimated using mouse insulin ELISA kit (Mercodia AB, Uppsala, Sweden).

[2] = test system: human hepatocellular carcinoma cell line, Hep3B; assay: Glycogen content assay in Hep3B cells; assay type: cell-based; settings: 30 minutes
Experimental: The C2C12 skeletal muscle cells were cultured in Dulbecco's modified Eagle's medium (DMEM; Gibco/Invitrogen, Carlsbad, Calif.), and the human hepatocellular carcinoma cell line, Hep3B, was cultured in Roswell Park Memorial Institute medium 1640 (RPMI 1640 medium; Gibco/Invitrogen, Carlsbad, Calif.). Cells were cultured at 37° C. in the humidified incubator supplied with 5% CO2. Culture mediums were supplemented with 4.5 mgmL^−1 glucose, penicillin 100 IUmL^−1, streptomycin 100 μgmL^−1 and 10% fetal bovine serum (Gibco/Invitrogen, Carlsbad, Calif.). Only C2C12 cells were then switched to 2% horse serum for 3 days after reaching the 70% confluence. Myotubes formation was achieved after 4 days of incubation, and the cells were used for subsequent experiments. Culture mediums were replaced by serum free DMEM or RPMI for 24 h before experiments (see e.g., procedure described in Sultan et al., 2006).
C2C12 and Hep3B cells were treated with 1 nM insulin, 100 μM metformin, and the assigned concentration of borapetoside A for 30 minutes. To develop the insulin resistance state of cells, C2C12 cells were incubated with IL-6 at 20 ngmL^−1 for 1 hour. Later, the cells were treated with 1 nM insulin, 100 μM metformin, and the assigned concentration of borapetoside A for 30 minutes. After the assigned treatment, cells were washed twice with phosphate buffered saline (PBS). Glycogen content was measured as previously described, with some modifications (see e.g., Savage et al., 2008). The protein concentrations of the cell lysates were determined by using Pierce BCA Protein Assay Kit (Thermo-Scientific, Rockford, Ill.). The glycogen content of each sample was normalized by total protein.

C[C@@]12C[C@@H](c3ccoc3)OC(=O)[C@@H]1C[C@@H]1OC(=O)[C@@]3(O)[C@@H](O[C@@H]4O[C@H](CO)[C@@H](O)[C@H](O)[C@H]4O)CC[C@@H]2[C@@]13C [Borapetoside A, borapetoside A]
Plasma insulin Before-treatment ([1]; Normal mice, 0.1 mg kg^−1 group): 61.0 ± 4.6 pmol/L | Plasma insulin After-treatment ([1]; Normal mice, 0.1 mg kg^−1 i.p.): 68.3 ± 4.4 pmol/L | Plasma insulin Before-treatment ([1]; Normal mice, 0.3 mg kg^−1 group): 63.4 ± 3.9 pmol/L | Plasma insulin After-treatment ([1]; Normal mice, 0.3 mg kg^−1 i.p.): 129.4 ± 22.0 pmol/L | Plasma insulin Before-treatment ([1]; Normal mice, 1 mg kg^−1 group): 66.1 ± 5.4 pmol/L | Plasma insulin After-treatment ([1]; Normal mice, 1 mg kg^−1 i.p.): 118.8 ± 10.1 pmol/L | Plasma insulin Before-treatment ([1]; Normal mice, 3 mg kg^−1 group): 64.4 ± 3.6 pmol/L | Plasma insulin After-treatment ([1]; Normal mice, 3 mg kg^−1 i.p.): 121.2 ± 14.2 pmol/L | Plasma insulin Before-treatment ([1]; Normal mice, 10 mg kg^−1 group): 68.9 ± 1.3 pmol/L | Plasma insulin After-treatment ([1]; Normal mice, 10 mg kg^−1 i.p.): 108.2 ± 2.9 pmol/L | Plasma insulin Before-treatment ([1]; T1DM mice, 0.1 mg kg^−1 group): 22.9 ± 0.1 pmol/L | Plasma insulin After-treatment ([1]; T1DM mice, 0.1 mg kg^−1 i.p.): 22.7 ± 0.2 pmol/L | Plasma insulin Before-treatment ([1]; T1DM mice, 0.3 mg kg^−1 group): 22.9 ± 0.1 pmol/L | Plasma insulin After-treatment ([1]; T1DM mice, 0.3 mg kg^−1 i.p.): 22.7 ± 0.3 pmol/L | Plasma insulin Before-treatment ([1]; T1DM mice, 1 mg kg^−1 group): 23.1 ± 0.2 pmol/L | Plasma insulin After-treatment ([1]; T1DM mice, 1 mg kg^−1 i.p.): 23.0 ± 0.2 pmol/L | Plasma insulin Before-treatment ([1]; T1DM mice, 3 mg kg^−1 group): 23.1 ± 0.2 pmol/L | Plasma insulin After-treatment ([1]; T1DM mice, 3 mg kg^−1 i.p.): 23.0 ± 0.0 pmol/L | Plasma insulin Before-treatment ([1]; T1DM mice, 10 mg kg^−1 group): 23.1 ± 0.1 pmol/L | Plasma insulin After-treatment ([1]; T1DM mice, 10 mg kg^−1 i.p.): 23.0 ± 0.1 pmol/L | Plasma insulin Before-treatment ([1]; T2DM mice, 0.1 mg kg^−1 group): 140.5 ± 4.1 pmol/L | Plasma insulin After-treatment ([1]; T2DM mice, 0.1 mg kg^−1 i.p.): 134.5 ± 9.3 pmol/L | Plasma insulin Before-treatment ([1]; T2DM mice, 0.3 mg kg^−1 group): 133.0 ± 4.2 pmol/L | Plasma insulin After-treatment ([1]; T2DM mice, 0.3 mg kg^−1 i.p.): 149.0 ± 9.5 pmol/L | Plasma insulin Before-treatment ([1]; T2DM mice, 1 mg kg^−1 group): 126.8 ± 5.7 pmol/L | Plasma insulin After-treatment ([1]; T2DM mice, 1 mg kg^−1 i.p.): 123.7 ± 9.6 pmol/L | Plasma insulin Before-treatment ([1]; T2DM mice, 3 mg kg^−1 group): 138.3 ± 3.6 pmol/L | Plasma insulin After-treatment ([1]; T2DM mice, 3 mg kg^−1 i.p.): 184.3 ± 14.6 pmol/L | Plasma insulin Before-treatment ([1]; T2DM mice, 10 mg kg^−1 group): 134.9 ± 3.5 pmol/L | Plasma insulin After-treatment ([1]; T2DM mice, 10 mg kg^−1 i.p.): 205.3 ± 22.2 pmol/L | fold increase of glycogen content ([2]; 10^−5 mol/L): 1.54±0.11 fold | fold increase of glycogen content ([2]; 10^−6 mol/L): 1.39±0.12 fold | fold increase of glycogen content ([2]; 10^−7 mol/L): 1.46±0.05 fold

— US20150265682A1, “THERAPEUTIC METHODS AND COMPOSITIONS FOR TREATING DIABETES” (Orient Europharma Co., Ltd., priority 2014, published 2015)
